Measured values as given in ChEMBL document CHEMBL5614424, “Natural Product-Inspired Discovery of Naphthoquinone-Furo-Piperidine Derivatives as Novel STAT3 Inhibitors for the Treatment of Triple-Negative Breast Cancer” (J Med Chem, 2024).

Key:
[1] = test system: MDA-MB-231; assay: Induction of apoptosis in human MDA-MB-231 cells assessed as early apoptotic cells at 2.5 uM measured after 24 hrs incubation by the annexin V/propidium iodide (PI) double staining assay (reference value: 2.46%); type: functional
[2] = Toxicity in female BALB/c-nude mouse assessed as histological change in kidney at 15 to 30 mg/kg, ip once daily for 21 consecutive days by H and E staining based IHC analysis; type: organism-based; conditions: in vivo, 504 h, dose 15-30 mg/kg, time 21 day
[3] = Antiproliferative activity against human MCF-10A cells assessed as cell viability incubated for 48 hrs measured after additional incubation with MTT; type: toxicity, cell-based
[4] = test system: MDA-MB-231; assay: Antiproliferative activity against human MDA-MB-231 cells assessed as cell viability incubated for 48 hrs measured after additional incubation with MTT; type: functional, cell-based; conditions: MDA-MB-231, 48 h
[5] = test system: MDA-MB-231; assay: Induction of apoptosis in human MDA-MB-231 cells assessed as late apoptotic cells pretreated with Z-VAD-FMK at 5 uM measured after 24 hrs incubation by the annexin V/propidium iodide (PI) double staining assay (reference value: 3.08%); type: functional
[6] = test system: MDA-MB-468; assay: Induction of apoptosis in human MDA-MB-468 cells assessed as early apoptotic cells at 2.5 uM measured after 24 hrs incubation by the annexin V/propidium iodide (PI) double staining assay (reference value: 3.98%); type: functional
[7] = Toxicity in female BALB/c-nude mouse assessed as histological change in liver at 15 to 30 mg/kg, ip once daily for 21 consecutive days by H and E staining based IHC analysis; type: organism-based; conditions: in vivo, 504 h, dose 15-30 mg/kg, time 21 day
[8] = test system: MDA-MB-231; assay: Induction of apoptosis in human MDA-MB-231 cells assessed as early apoptotic cells at 5 uM measured after 24 hrs incubation by the annexin V/propidium iodide (PI) double staining assay (reference value: 2.37%); type: functional
[9] = test system: L02; assay: Antiproliferative activity against human L02 cells assessed as cell viability incubated for 48 hrs measured after additional incubation with MTT; type: functional, cell-based; conditions: L02, 48 h
[10] = test system: MDA-MB-231; assay: Induction of apoptosis in human MDA-MB-231 cells assessed as late apoptotic cells at 2.5 uM measured after 24 hrs incubation by the annexin V/propidium iodide (PI) double staining assay (reference value: 2.69%); type: functional
[11] = AUC(0 to infinity) in male rat at 10 mg/kg, po measured upto 24 hrs by LC/MS/MS analysis; type: ADME, organism-based; conditions: in vivo
[12] = test system: MDA-MB-468; assay: Induction of apoptosis in human MDA-MB-468 cells assessed as late apoptotic cells at 2.5 uM measured after 24 hrs incubation by the annexin V/propidium iodide (PI) double staining assay (reference value: 3.64%); type: functional
[13] = Tmax in male rat at 10 mg/kg, ip measured upto 24 hrs by LC/MS/MS analysis; type: ADME, organism-based; conditions: in vivo
[14] = test system: MDA-MB-468; assay: Induction of apoptosis in human MDA-MB-468 cells assessed as late apoptotic cells at 5 uM measured after 24 hrs incubation by the annexin V/propidium iodide (PI) double staining assay (reference value: 3.64%); type: functional
[15] = Half life in male rat at 5 mg/kg, iv measured upto 24 hrs by LC/MS/MS analysis; type: ADME, organism-based; conditions: in vivo
[16] = test system: MDA-MB-468; assay: Induction of apoptosis in human MDA-MB-468 cells assessed as late apoptotic cells at 5 uM measured after 24 hrs incubation by the annexin V/propidium iodide (PI) double staining assay (reference value: 4.33%); type: functional
[17] = Cmax in male rat at 10 mg/kg, ip measured upto 24 hrs by LC/MS/MS analysis; type: ADME, organism-based; conditions: in vivo
[18] = test system: MDA-MB-231; assay: Induction of apoptosis in human MDA-MB-231 cells assessed as early apoptotic cells pretreated with Z-VAD-FMK at 5 uM measured after 24 hrs incubation by the annexin V/propidium iodide (PI) double staining assay (reference value: 2.37%); type: functional
[19] = Toxicity in female BALB/c-nude mouse assessed as histological change in lung at 15 to 30 mg/kg, ip once daily for 21 consecutive days by H and E staining based IHC analysis; type: organism-based; conditions: in vivo, 504 h, dose 15-30 mg/kg, time 21 day
[20] = Half life in male rat at 10 mg/kg, po measured upto 24 hrs by LC/MS/MS analysis; type: ADME, organism-based; conditions: in vivo
[21] = AUC(0 to t) in male rat at 5 mg/kg, iv measured upto 24 hrs by LC/MS/MS analysis; type: ADME, organism-based; conditions: in vivo
[22] = test system: MDA-MB-231; assay: Induction of apoptosis in human MDA-MB-231 cells assessed as early apoptotic cells at 5 uM measured after 24 hrs incubation by the annexin V/propidium iodide (PI) double staining assay (reference value: 2.46%); type: functional
[23] = test system: MDA-MB-468; assay: Induction of apoptosis in human MDA-MB-468 cells assessed as late apoptotic cells pretreated with Z-VAD-FMK at 5 uM measured after 24 hrs incubation by the annexin V/propidium iodide (PI) double staining assay (reference value: 4.33%); type: functional
[24] = AUC(0 to infinity) in male rat at 5 mg/kg, iv measured upto 24 hrs by LC/MS/MS analysis; type: ADME, organism-based; conditions: in vivo
[25] = Toxicity in female BALB/c-nude mouse assessed as histological change in spleen at 15 to 30 mg/kg, ip once daily for 21 consecutive days by H and E staining based IHC analysis; type: organism-based; conditions: in vivo, 504 h, dose 15-30 mg/kg, time 21 day
[26] = Toxicity in female BALB/c-nude mouse assessed as histological change in heart at 15 to 30 mg/kg, ip once daily for 21 consecutive days by H and E staining based IHC analysis; type: organism-based; conditions: in vivo, 504 h, dose 15-30 mg/kg, time 21 day
[27] = test system: MDA-MB-468; assay: Induction of apoptosis in human MDA-MB-468 cells assessed as early apoptotic cells pretreated with Z-VAD-FMK at 5 uM measured after 24 hrs incubation by the annexin V/propidium iodide (PI) double staining assay (reference value: 2.36%); type: functional
[28] = Half life in male rat at 10 mg/kg, ip measured upto 24 hrs by LC/MS/MS analysis; type: ADME, organism-based; conditions: in vivo
[29] = test system: MDA-MB-468; assay: Antiproliferative activity against human MDA-MB-468 cells assessed as cell viability incubated for 48 hrs measured after additional incubation with MTT; type: functional, cell-based; conditions: MDA-MB-468, 48 h
[30] = test system: MDA-MB-468; assay: Induction of apoptosis in human MDA-MB-468 cells assessed as early apoptotic cells at 5 uM measured after 24 hrs incubation by the annexin V/propidium iodide (PI) double staining assay (reference value: 3.98%); type: functional
[31] = test system: MDA-MB-231; assay: In vivo antitumor activity against human MDA-MB-231 cells assessed as tumor growth inhibition at 30 mg/kg, ip once daily for 21 consecutive days relative to control; type: functional; conditions: MDA-MB-231, 504 h, time 21 day, read-out: TGI
[32] = test system: MDA-MB-231; assay: Induction of apoptosis in human MDA-MB-231 cells assessed as late apoptotic cells at 5 uM measured after 24 hrs incubation by the annexin V/propidium iodide (PI) double staining assay (reference value: 3.08%); type: functional
[33] = AUC(0 to infinity) in male rat at 10 mg/kg, ip measured upto 24 hrs by LC/MS/MS analysis; type: ADME, organism-based; conditions: in vivo
[34] = Cmax in male rat at 5 mg/kg, iv measured upto 24 hrs by LC/MS/MS analysis; type: ADME, organism-based; conditions: in vivo
[35] = test system: MDA-MB-468; assay: Induction of apoptosis in human MDA-MB-468 cells assessed as early apoptotic cells at 5 uM measured after 24 hrs incubation by the annexin V/propidium iodide (PI) double staining assay (reference value: 2.36%); type: functional
[36] = Tmax in male rat at 5 mg/kg, iv measured upto 24 hrs by LC/MS/MS analysis; type: ADME, organism-based; conditions: in vivo
[37] = test system: MDA-MB-231; assay: In vivo antitumor activity against human MDA-MB-231 cells assessed as tumor growth inhibition at 15 mg/kg, ip once daily for 21 consecutive days relative to control; type: functional; conditions: MDA-MB-231, 504 h, time 21 day, read-out: TGI
[38] = AUC(0 to t) in male rat at 10 mg/kg, po measured upto 24 hrs by LC/MS/MS analysis; type: ADME, organism-based; conditions: in vivo
[39] = AUC(0 to t) in male rat at 10 mg/kg, ip measured upto 24 hrs by LC/MS/MS analysis; type: ADME, organism-based; conditions: in vivo
[40] = test system: MDA-MB-231; assay: Induction of apoptosis in human MDA-MB-231 cells assessed as late apoptotic cells at 5 uM measured after 24 hrs incubation by the annexin V/propidium iodide (PI) double staining assay (reference value: 2.69%); type: functional
[41] = Tmax in male rat at 10 mg/kg, po measured upto 24 hrs by LC/MS/MS analysis; type: ADME, organism-based; conditions: in vivo
[42] = Oral bioavailability in male rat at 10 mg/kg measured upto 24 hrs by LC/MS/MS analysis; type: ADME, organism-based; conditions: in vivo
[43] = Cmax in male rat at 10 mg/kg, po measured upto 24 hrs by LC/MS/MS analysis; type: ADME, organism-based; conditions: in vivo

IC50 [4]: 2.05 µM
AUC(0-inf) [11]: 56.7 ng·h/mL
Tmax [13]: 6 min
half-life [15]: 7.9 h
Cmax [17]: 232 ng/mL
half-life [20]: 7.1 h
AUC(0-t) at 24 h [21]: 536 ng·h/mL
AUC(0-inf) [24]: 618 ng·h/mL
half-life [28]: 7.9 h
IC50 [29]: 7.54 µM
AUC(0-inf) [33]: 490 ng·h/mL
Cmax [34]: 348 ng/mL
Tmax [36]: 4.2 min
AUC(0-t) at 24 h [38]: 55.1 ng·h/mL
AUC(0-t) at 24 h [39]: 436 ng·h/mL
Tmax [41]: 0.2 h
bioavailability [42]: 5.1%
Cmax [43]: 67.8 ng/mL
SMILES: CC(C)C[C@@H](CO)N1CCc2c(oc3c2C(=O)C(=O)c2ccccc2-3)C1
Activity [1]: 3.35%
Activity [2]: Non-Toxic
IC50 at 48 h [3]: > 20 µM
Activity [5]: 13.57%
Activity [6]: 3.86%
Activity [7]: Non-Toxic
Activity [8]: 3.97%
IC50 [9]: > 20 µM
Activity [10]: 3.48%
Activity [12]: 4.6%
Activity [14]: 19.37%
Activity [16]: 17.13%
Activity [18]: 4.68%
Activity [19]: Non-Toxic
Activity [22]: 5.86%
Activity [23]: 15.38%
Activity [25]: Non-Toxic
Activity [26]: Non-Toxic
Activity [27]: 11.06%
Activity [30]: 16.47%
inhibition in vivo at 30 mg/kg [31]: 60.4%
Activity [32]: 25.51%
Activity [35]: 22.31%
inhibition in vivo at 15 mg/kg [37]: 42.2%
Activity [40]: 29.24%
